Data as given in patent publication US8415486B2, “IAP inhibitors” (TetraLogic Pharmaceuticals Corp., priority 2009, dated 2013).
pKd: −log10 of the molar value.

Experiments:
cIAP-1 BIR-3 = molecular target: T1, cIAP-1 BIR-3 (Homo sapiens, UniProt Q13490); assay: Fluorescence polarization binding to cIAP-1 BIR-3 with labeled peptide AbuRPF-K(5-Fam)-NH2; conditions: 40 nM BIR3, 5 nM labeled peptide, reported as ranges, read-out: KD (c-IAP-1 BIR3)
T1 construct: 40 nM of the respective IAP BIR3
Description: (§1) The binding affinities of the compounds are reported as a KD value (μM). Briefly, various concentrations of test peptides were mixed with 5 nM of the fluorescently labeled peptide (i.e., a mutated N-terminal Smac peptide—AbuRPF-K(5-Fam)-NH2) and 40 nM of the respective IAP BIR3 for 15 min at RT in […] of 0.1M Potassium Phosphate buffer, pH 7.5 containing 100 mg/ml bovine g-globulin. Following incubation, the polarization values (mP) were measured on a Victor2V (available from PerkinElmer Life Sciences) using a 485 nm excitation filter and a 520 nm emission filter. The reported binding affinities (KD values) are supplied as ranges (A=<0.1 μM, B=0.1 μM to 1 μM, C=>1 μM to 10 μM, D=>10 μM).

XIAP BIR-3 = molecular target: T2, XIAP BIR-3 (Homo sapiens, UniProt P98170); assay: Fluorescence polarization binding to XIAP BIR-3 with labeled peptide AbuRPF-K(5-Fam)-NH2; conditions: 40 nM BIR3, 5 nM labeled peptide, reported as ranges
T2 construct: 40 nM of the respective IAP BIR3
Description: as §1

[1] = system: ovarian cancer cell line, SK-OV-3; assay: SK-OV-3 cell growth inhibition (MTT, 72 hrs); type: cell-based; conditions: Homo sapiens, concentration giving 50% cell survival, reported as ranges
Description: Compounds of the invention also were tested for their ability to inhibit the growth of an ovarian cancer cell line, SK-OV-3. A known assay previously used for measuring cell growth (as described in Hansen, M. B., Nielsen, S. E., and Berg, K. (1989) J. Immunol. Methods 119, 203-210 and incorporated herein by reference in its entirety) was used. Briefly, SK-OV-3 cells are seeded in 96-well plates in McCoy's medium containing 10% fetal bovine serum albumin (5,000 per well) and incubated overnight at 37° C. The next day, test compounds are added at various concentrations (0.003-10 μM) and the plates are incubated at 37° C. for an additional 72 hrs. This incubation time was considered to be optimal for measuring inhibitory effects of the different compounds tested. 50 microliters of 5 mg/mL MTT reagent is added to each well and the plates are incubated at 37° C. for another three (3) hours. At the end of the three (3) hour incubation period, 50 microliters of DMSO is added to each well to dissolve cells and the optical density (OD) of the wells is measured with a microplate reader (Victor^2 1420, Wallac, Finland) at 535 nm. Cell survival (CS) was calculated using the following equation: CS=(OD treated well/mean OD control wells)×100%.
The CC50 (reported in the following tables), is defined as the drug concentration that results in 50% cell survival (CS), and is derived by calculating the point where the dose-response curve crosses the 50% CS point using GraphPad Prism. The reported CC50 values are supplied as ranges (A=<0.1 μM, B=0.1 μM to 1 μM, C=>1 μM to 10 μM, D=>10 μM).

T1 sequence (Q13490 253-363 limits assumed): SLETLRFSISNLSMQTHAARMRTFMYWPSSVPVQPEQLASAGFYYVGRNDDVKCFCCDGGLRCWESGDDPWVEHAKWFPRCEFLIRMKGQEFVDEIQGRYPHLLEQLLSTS
T2 sequence (P98170 241-356 limits assumed): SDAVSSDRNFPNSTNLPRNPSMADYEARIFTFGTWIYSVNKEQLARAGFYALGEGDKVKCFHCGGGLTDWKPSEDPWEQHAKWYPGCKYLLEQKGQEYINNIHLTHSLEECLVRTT

pKd (cIAP-1 BIR-3)	pKd (XIAP BIR-3)	SMILES	CC50 [1]
> 7.00	6.00 to 7.00	CN[C@@H](C)C(=O)N[C@H](C(=O)N1CC[C@H]2NC[C@H](Oc3cccc4c3CCCC4)[C@H]21)C1CCCCC1 [Example 5, N-{1-Cyclohexyl-2-oxo-2-[6-(5,6,7,8-tetrahydro-naphthalen-1-yloxy)-hexahydro-pyrrolo[3,2-b]pyrrol-1-yl]-ethyl}-2-methylamino-propionamide]	100 to 1000 nM
> 7.00	6.00 to 7.00	CN[C@@H](C)C(=O)N[C@H](C(=O)N1CC[C@@H]2[C@H]1[C@@H](Oc1ccc(F)c(F)c1)CN2C1CCCC1)C(C)(C)C [Example 17, N-{1-[4-Cyclopentyl-6-(3,4-difluoro-phenoxy)-hexahydro-pyrrolo[3,2-b]pyrrole-1-carbonyl]-2,2-dimethyl-propyl}-2-methylamino-propionamide]	< 100 nM
> 7.00	5.00 to 6.00	CCNC(=O)O[C@H]1CN(C(=O)NC(C)C)[C@@H]2CCN(C(=O)[C@@H](NC(=O)[C@H](C)NC)C(C)(C)C)[C@H]12 [Example 52, Ethyl-carbamic acid 4-[3,3-dimethyl-2-(2-methylamino-propionylamino)-butyryl]-1-isopropylcarbamoyl-octahydro-pyrrolo[3,2-b]pyrrol-3-yl ester]	1000 to 10000 nM
> 7.00	6.00 to 7.00	CN[C@@H](C)C(=O)N[C@H](C(=O)N1CC[C@@H]2[C@H]1[C@@H](Oc1ccc(F)c(F)c1)CN2C1CCOCC1)C(C)(C)C [Example 15, N-{1-[6-(3,4-Difluoro-phenoxy)-4-(tetrahydro-pyran-4-yl)-hexahydro-pyrrolo[3,2-b]pyrrole-1-carbonyl]-2,2-dimethyl-propyl}-2-methylamino-propionamide]	< 100 nM
> 7.00	6.00 to 7.00	CN[C@@H](C)C(=O)N[C@H](C(=O)N1CC[C@H]2NC[C@H](OCc3ccc(F)cc3)[C@H]21)C(C)(C)C [Example 35, N-{1-[6-(4-Fluoro-benzyloxy)-hexahydro-pyrrolo[3,2-b]pyrrole-1-carbonyl]-2,2-dimethyl-propyl}-2-methylamino-propionamide ester]	< 100 nM
> 7.00	6.00 to 7.00	CN[C@@H](C)C(=O)N[C@H](C(=O)N1CC[C@@H]2[C@H]1[C@@H](OCc1ccc(F)cc1)CN2C1CCOCC1)C(C)(C)C [Example 43, (S)—N—((S)-1-((3aR,6S,6aS)-6-(4-fluorobenzyloxy)-4-(tetrahydro-2H-pyran-4-yl)hexahydropyrrolo[3,2-b]pyrrol-1(2H)-yl)-3,3-dimethyl-1-oxobutan-2-yl)-2-(methylamino)propanamide]	< 100 nM
> 7.00	> 7.00	CN[C@@H](C)C(=O)N[C@H](C(=O)N1CC[C@@H]2[C@H]1[C@@H](OCc1ccc(F)cc1)CN2C(C)=O)C(C)(C)C [Example 40, N-{1-[4-Acetyl-6-(4-fluoro-benzyloxy)-hexahydro-pyrrolo[3,2-b]pyrrole-1-carbonyl]-2,2-dimethyl-propyl}-2-methylamino-propionamide]	< 100 nM
> 7.00	> 7.00	CN[C@@H](C)C(=O)N[C@H](C(=O)N1CC[C@@H]2[C@H]1[C@@H](Oc1ccccc1)CN2S(C)(=O)=O)C(C)C [Example 3, N-[1-(4-Methanesulfonyl-6-phenoxy-hexahydro-pyrrolo[3,2-b]pyrrole-1-carbonyl)-2-methyl-propyl]-2-methylamino-propionamide]	< 100 nM
> 7.00	> 7.00	CN[C@@H](C)C(=O)N[C@H](C(=O)N1CC[C@@H]2[C@H]1[C@@H](Oc1ccc(F)cc1)CN2S(C)(=O)=O)C(C)C [Example 9, N-{1-[6-(4-Fluoro-phenoxy)-4-methanesulfonyl-hexahydro-pyrrolo[3,2-b]pyrrole-1-carbonyl]-2-methyl-propyl}-2-methylamino-propionamide]	< 100 nM
> 7.00	> 7.00	CN[C@@H](C)C(=O)N[C@H](C(=O)N1CC[C@@H]2[C@H]1[C@@H](OCc1ccc(F)cc1)CN2S(=O)(=O)CC(C)C)C(C)(C)C [Example 38, N-{1-[6-(4-Fluoro-benzyloxy)-4-(2-methyl-propane-1-sulfonyl)-hexahydro-pyrrolo[3,2-b]pyrrole-1-carbonyl]-2,2-dimethyl-propyl}-2-methylamino-propionamide]	< 100 nM
> 7.00	5.00 to 6.00	CN[C@@H](C)C(=O)N[C@H](C(=O)N1CC[C@@H]2[C@H]1[C@@H](OC(=O)NC(C)C)CN2C(=O)NC(C)C)C(C)(C)C [Example 54, Isopropyl-carbamic acid 4-[3,3-dimethyl-2-(2-methylamino-propionylamino)-butyryl]-1-isopropylcarbamoyl-octahydro-pyrrolo[3,2-b]pyrrol-3-yl ester]	1000 to 10000 nM
> 7.00	> 7.00	CN[C@@H](C)C(=O)N[C@H](C(=O)N1CC[C@@H]2[C@H]1[C@@H](OCc1ccc(F)cc1)CN2C(=O)C(C)=O)C(C)(C)C [Example 42, N-{1-[6-(4-Fluoro-benzyloxy)-4-(2-oxo-propionyl)-hexahydro-pyrrolo[3,2-b]pyrrole-1-carbonyl]-2,2-dimethyl-propyl}-2-methylamino-propionamide]	< 100 nM
> 7.00	> 7.00	CN[C@@H](C)C(=O)N[C@H](C(=O)N1CC[C@@H]2[C@H]1[C@@H](Oc1ccc(F)cc1)CN2C(=O)NC(C)C)C1CCCCC1 [Example 28, 4-[2-Cyclohexyl-2-(2-methylamino-propionylamino)-acetyl]-3-(4-fluoro-phenoxy)-hexahydro-pyrrolo[3,2-b]pyrrole-1-carboxylic acid isopropylamide]	< 100 nM
> 7.00	> 7.00	CN[C@@H](C)C(=O)N[C@H](C(=O)N1CC[C@@H]2[C@H]1[C@@H](Oc1ccc(F)c(F)c1)CN2C(=O)N(C)C)C(C)(C)C [Example 25, 3-(3,4-Difluoro-phenoxy)-4-[3,3-dimethyl-2-(2-methylamino-propionylamino)-butyryl]-hexahydro-pyrrolo[3,2-b]pyrrole-1-carboxylic acid dimethylamide]	< 100 nM
> 7.00	6.00 to 7.00	CN[C@@H](C)C(=O)N[C@H](C(=O)N1CC[C@@H]2[C@H]1[C@@H](OCc1ccc(F)cc1)CN2c1ncccn1)C(C)(C)C [Example 45, (S)—N—((S)-1-((3aR,6S,6aS)-6-(4-fluorobenzyloxy)-4-(pyrimidin-2-yl)hexahydropyrrolo[3,2-b]pyrrol-1(2H)-yl)-3,3-dimethyl-1-oxobutan-2-yl)-2-(methylamino)propanamide]	< 100 nM
> 7.00	> 7.00	CNC(=O)N1C[C@H](Oc2ccc(F)c(F)c2)[C@@H]2[C@H]1CCN2C(=O)[C@@H](NC(=O)[C@H](C)NC)C(C)(C)C [Example 23, 3-(3,4-Difluoro-phenoxy)-4-[3,3-dimethyl-2-(2-methylamino-propionylamino)-butyryl]-hexahydro-pyrrolo[3,2-b]pyrrole-1-carboxylic acid methylamide]	< 100 nM
